# Where two headings read alike, the source gives them in different places.
# What was measured:
# [1] = tested on: cerebral infarct; experiment: Detection of cerebral infarct in the rat (gamma imaging, localization ratio); type: in vivo, Sprague-Dawley CD rats; settings: for DDC activity (mean +/- SD), ratio infarct:normal brain: 0.6 mCi, perfusion deficit marker; for Tc-99m-glucarate activity (mean +/- SD), ratio stroke regions to normal cerebral regions: i.v., 1.5-2.0 mCi
# Procedure: Tc-99m-glucarate was used to visualize cerebral infarct regions in the rat brain.
# Experimental cerebral infarcts were created in 28 Sprague-Dawley CD rats (Charles River Laboratories) by injection of thrombin-generated thrombi into an isolated carotid artery. […] Imaging was performed 1.5-2.0 hours later utilizing a gamma camera having a 3 mm diameter pin hole collimator. […] The gamma images obtained were analyzed by computer planimetry. Ratios of count densities in infarct regions and normal brain regions were calculated.
# [2] = Biodistribution of 99mTc-glucarate in various organs in Balb/c mice; type: in vivo; settings: i.v., 100 uCi
# Procedure: Biodistribution studies were carried out in Balb/c mice. The mice (3 mice per group) were injected intravenously with 100 uCi of technetium-labeled D-glucarate. […]
# [3] = room temperature, 1 hr
# Procedure: Monopotassium glucarate (25 mg) was dissolved in 0.2M bicarbonate (1.0 ml) at pH 8.0. To 500 ul of glucarate solution, 40 ul of stannous chloride (2.5 mg/ml) in 0.1M acetic acid was added, followed by 500 ul of ^99m Tc generator eluate (60 mCi). The resulting solution was allowed to stand for 5 minutes at room temperature, and then analyzed for radiochemical purity by paper chromatography (Whatman 3MM, 60% CH3 CN:40% H2 O)
# ^99m Tc-glucarate was prepared as described in Example 1 using different concentrations of potassium glucarate (0.09-12.25 mg/ml). The products were analyzed by paper chromatography (Whatman 3MM, 60% CH3 CN:40%H2 O; ^99m TcO4 ^-Rf= 1.0, ^99m Tc-glucarate,Rf=0.4; ^99m TcO2 ×H2 O, Rf=0).
# [4] = preparation made from 12 mg/ml glucarate
# Procedure: Samples of ^99m -Tc-glucarate prepared as described in Example 1 from 6 and 12 mg/ml potassium glucarate were analyzed over a period of 7 hours.
# [5] = tested on: acute myocardial infarct; experiment: Detection of myocardial infarct in the dog (gamma camera imaging); settings: for visualization of area of acute myocardial necrosis / blood pool activity: 80 minutes after injection; for visualization of area of acute myocardial necrosis: 10 mCi
# Procedure: Mongrel dogs (n=3) were anesthetized with intravenous pentobartitol (30 mg/kg), and respiration maintained on a Harvard respirator. Left thoractomy was performed, the heart suspended in a pericardial cradle and a segment of the left anterior descending coronary artery (LAD) approximately two thirds the distance from the apex to the base was dissected free. The LAD was then occluded with a silk ligature. After three hours of LAD occlusion, the occlusive ligature was removed and reperfusion was established. At 15 minutes of reperfusion, 200 uCi of indium labeled R11D10 Fab-DTPA (Centocor, Inc.) was injected, and 30 seconds later, 10 mCi of technetium labeled glucarate was injected. Serial imaging with a gamma camera was initiated immediately upon tracer administration.
# After 5 hours of in vivo imaging sessions, the dogs were sacrificed by pentobarbital overdose. Then, the cardiac tissue was stained with an intravenous triphenyltetrazolium chloride infusion. The heart was excised, washed with cold water, and imaged as a whole excised heart; and also as heart slices cut parallel to the atrioventricular groove in four slices after overnight storage at 4° C. Each slice was then divided into eight equal pieces and each piece subdivided into epicardial and endocardial samples, weighed and then counted in a gamma well counter (LKB Compu Gamma counter) for distribution of the various radioisotopes. […] Blood samples from the contralateral vein were obtained at 1, 2, 3, 4, 5, 10, 15, 20, 30, 45, 60, and 75 minutes. […] At the time of sacrifice, tissue samples from the liver, lungs, kidneys, spleen, and skeletal muscles were also obtained.
# [6] = tested on: myocardial infarct; settings: Rossman et al., J. Nucl. Med. 16: 980-985 (1975); cited from earlier work
# [7] = dog, listed as 99m Tc-glucarate
substance,measurement,setting,value
"T1-201 diethyldithiocarbamate [DDC, reference compound]","DDC activity (mean +/- SD), ratio infarct:normal brain","[1]; 1 hour after infarct, rats",0.3 +/- 0.1
same,"DDC activity (mean +/- SD), ratio infarct:normal brain","[1]; 3 hours after infarct, rats",0.3 +/- 0.3
same,"DDC activity (mean +/- SD), ratio infarct:normal brain","[1]; 5 hours after infarct, rats",0.4 +/- 0.2
same,"DDC activity (mean +/- SD), ratio infarct:normal brain","[1]; 24 hours after infarct, rats",0.3 +/- 0.2
Tc-99m-glucarate,"Biodistribution, Blood",[2]; 1 hour,1.72 ± 0.43 % Injected Dose Per Gram
same,"Biodistribution, Heart",[2]; 1 hour,0.63 ± 1.10 % Injected Dose Per Gram
same,"Biodistribution, Intestine",[2]; 1 hour,2.90 ± 1.12 % Injected Dose Per Gram
same,"Biodistribution, Kidneys",[2]; 1 hour,24.3 ± 4.15 % Injected Dose Per Gram
same,"Biodistribution, Liver",[2]; 1 hour,1.54 ± 0.51 % Injected Dose Per Gram
same,"Biodistribution, Lungs",[2]; 1 hour,3.90 ± 1.80 % Injected Dose Per Gram
same,"Biodistribution, Muscle",[2]; 1 hour,0.32 ± 0.20 % Injected Dose Per Gram
same,"Biodistribution, Spleen",[2]; 1 hour,0.44 ± 0.76 % Injected Dose Per Gram
same,"Biodistribution, Stomach",[2]; 1 hour,0.935 % Injected Dose Per Gram
same,"Biodistribution, Blood",[2]; 4 hours,1.26 ± 0.22 % Injected Dose Per Gram
same,"Biodistribution, Heart",[2]; 4 hours,0.75 ± 1.30 % Injected Dose Per Gram
same,"Biodistribution, Intestine",[2]; 4 hours,2.02 ± 0.90 % Injected Dose Per Gram
same,"Biodistribution, Kidneys",[2]; 4 hours,28.50 ± 0.75 % Injected Dose Per Gram
same,"Biodistribution, Liver",[2]; 4 hours,1.49 ± 0.08 % Injected Dose Per Gram
same,"Biodistribution, Lungs",[2]; 4 hours,3.43 ± 1.35 % Injected Dose Per Gram
same,"Biodistribution, Muscle",[2]; 4 hours,2.31 ± 2.98 % Injected Dose Per Gram
same,"Biodistribution, Stomach",[2]; 4 hours,3.49 ± 5.10 % Injected Dose Per Gram
same,"Biodistribution, Blood",[2]; 8 hours,0.90 ± 0.29 % Injected Dose Per Gram
same,"Biodistribution, Heart",[2]; 8 hours,0.30 ± 0.52 % Injected Dose Per Gram
same,"Biodistribution, Intestine",[2]; 8 hours,0.89 ± 0.46 % Injected Dose Per Gram
same,"Biodistribution, Kidneys",[2]; 8 hours,19.20 ± 5.00 % Injected Dose Per Gram
same,"Biodistribution, Liver",[2]; 8 hours,1.03 ± 0.18 % Injected Dose Per Gram
same,"Biodistribution, Lungs",[2]; 8 hours,1.95 ± 1.04 % Injected Dose Per Gram
same,"Biodistribution, Muscle",[2]; 8 hours,0.59 ± 0.82 % Injected Dose Per Gram
same,"Biodistribution, Stomach",[2]; 8 hours,1.13 ± 0.98 % Injected Dose Per Gram
same,"Biodistribution, Blood",[2]; 24 hours,0.56 ± 0.09 % Injected Dose Per Gram
same,"Biodistribution, Intestine",[2]; 24 hours,0.58 ± 0.36 % Injected Dose Per Gram
same,"Biodistribution, Kidneys",[2]; 24 hours,8.4 ± 1.74 % Injected Dose Per Gram
same,"Biodistribution, Liver",[2]; 24 hours,0.42 ± 0.05 % Injected Dose Per Gram
same,"Biodistribution, Lungs",[2]; 24 hours,1.52 ± 1.02 % Injected Dose Per Gram
same,"Biodistribution, Muscle",[2]; 24 hours,0.68 ± 1.00 % Injected Dose Per Gram
same,"Biodistribution, Stomach",[2]; 24 hours,0.39 ± 0.34 % Injected Dose Per Gram
same,effect of duration of cerebral injury on localization,"[1]; 1, 3, 5 and 24 hours, rats",did not appear to affect localization
same,diffusion across the blood-brain barrier,[1]; imaging in the brain,can diffuse across the blood-brain barrier
same,"Tc-99m-glucarate activity (mean +/- SD), ratio stroke regions to normal cerebral regions","[1]; injection 1 hour after infarct, rats",2.98 +/- 0.7
same,"Tc-99m-glucarate activity (mean +/- SD), ratio stroke regions to normal cerebral regions","[1]; injection 3 hours after infarct, rats",4.1 +/- 1.7
same,"Tc-99m-glucarate activity (mean +/- SD), ratio stroke regions to normal cerebral regions","[1]; injection 5 hours after infarct, rats",4.1 +/- 2.4
same,"Tc-99m-glucarate activity (mean +/- SD), ratio stroke regions to normal cerebral regions","[1]; injection 24 hours after infarct, rats",4.8 +/- 1.9
same,accumulation in stroke compared with 99mTc-glucoheptonate,[1]; rats,more rapid and intense
same,"ratios of activity in stroke regions to normal cerebral regions, in words",[1]; rats,maximal in all stroke animals
same,time to cerebral infarct image,[1]; rats,one
same,visualization of cerebral infarct regions by gamma scintigraphy,[1]; rats,All cerebral infarct regions were visualized
same,% 99mTc-Glucarate,[3]; 0.09 mg/ml glucaric acid,43.0%
same,% 99mTcO2,[3]; 0.09 mg/ml glucaric acid,57.0%
same,% 99mTc-Glucarate,[3]; 0.19 mg/ml glucaric acid,59.0%
same,% 99mTcO2,[3]; 0.19 mg/ml glucaric acid,41.0%
same,% 99mTc-Glucarate,[3]; 0.38 mg/ml glucaric acid,70.0%
same,% 99mTcO2,[3]; 0.38 mg/ml glucaric acid,30.0%
same,% 99mTc-Glucarate,[3]; 0.76 mg/ml glucaric acid,75.6%
same,% 99mTcO2,[3]; 0.76 mg/ml glucaric acid,24.4%
same,% 99mTc-Glucarate,[3]; 1.53 mg/ml glucaric acid,80.5%
same,% 99mTcO2,[3]; 1.53 mg/ml glucaric acid,19.5%
same,% 99mTc-Glucarate,[3]; 3.06 mg/ml glucaric acid,88.5%
same,% 99mTcO2,[3]; 3.06 mg/ml glucaric acid,11.5%
same,% 99mTc-Glucarate,[3]; 6.12 mg/ml glucaric acid,100.0%
same,% 99mTcO2,[3]; 6.12 mg/ml glucaric acid,.0%
same,% 99mTc-Glucarate,[3]; 12.25 mg/ml glucaric acid,100.0%
same,% 99mTcO2,[3]; 12.25 mg/ml glucaric acid,.0%
same,stable for a period of,[4],about 2 hours
same,visualization of area of acute myocardial necrosis,[5]; dog,clearly visible
same,visualization of area of acute myocardial necrosis,[5]; [7],clearly visualized
same,blood pool activity,[5]; dog,minimum blood activity
same,blood pool activity,[5]; [7],minimum blood pool activity
same,time to avid myocardial infarct image,[5]; dogs,one and a half
same,uptake in area of myocardial infarction of the heart slices,"[5]; excised heart slices, dog",Distinct uptake
^99m Tc-D-glucoheptonate,success as an imaging agent for myocardial infarct,[6],less successful

# From patent US4952393A, “Organ infarct imaging with technetium labelled glucarate” (The General Hospital Corporation, priority 1988, dated 1990)
